Data: ChEMBL document CHEMBL6103573, “Discovery of novel thienopyridine indole derivatives as inhibitors of tubulin polymerization targeting the colchicine-binding site with potent anticancer activities” (Eur J Med Chem, 2025)
Active and inactive are the calls of the source. No cut-off for these calls is given here.

How the values were obtained:
MGC-803 [1] = assay: Antitumor activity against human MGC-803 cells xenografted in female BALB/c-nu nude mouse assessed as tumor inhibition rate at 5 mg/kg, po administrated every other day for 11 times and measured after 21 days relative to control; format: functional; conditions: MGC-803, 504 h, time 21 day, read-out: TGI
HGC-27 [2] = assay: Induction of apoptosis in human HGC-27 cells assessed as late apoptotic cells at 1.0 nmol/L incubated for 48 hrs by Annexin V-FITC/propidium iodide staining based flow cytometry analysis (reference value: 3.70 %); format: functional
MGC-803 [3] = assay: Inhibition of colony formation in human MGC-803 cells at 0.5 nmol/L incubated for 7 days by crystal violet staining based colony formation assay relative to control; format: functional; conditions: MGC-803, 168 h, time 7 day
MGC-803 [4] = assay: Induction of apoptosis in human MGC-803 cells assessed as late apoptotic cells at 1.0 nmol/L incubated for 48 hrs by Annexin V-FITC/propidium iodide staining based flow cytometry analysis (reference value: 2.22 %); format: functional
[5] = biological target: T1, Tubulin beta (Homo sapiens) (UniProt P68371+Q9H4B7+Q13509+P04350+Q3ZCM7+P07437+Q13885+Q9BVA1+Q9BUF5+A6NNZ2); assay: Competitive binding affinity to beta-tubulin colchicine binding site in human MGC-803 cells assessed as reduction in EBI-beat tubulin adduct to beta-tubulin ratio preincubated for 2 hrs followed by EBI addition and measured after 2 hrs by Western blotting analysis; format: cell-based; conditions: dose 0.1-1 µmol/L, time 4.0 hrs
MGC-803 [6] = assay: Induction of apoptosis in human MGC-803 cells assessed as late apoptotic cells at 0.25 nmol/L incubated for 48 hrs by Annexin V-FITC/propidium iodide staining based flow cytometry analysis (reference value: 2.22 %); format: functional
HGC-27 [7] = assay: Induction of cell cycle arrest in human HGC-27 cells assessed as downregulation of Cdc25c level measured after 48 hrs by Western blot analysis; format: functional, cell-based; conditions: dose 0.25-2 nmol/L
Tubulin (Homo sapiens) [8] = biological target: T2, Tubulin (Homo sapiens) (UniProt P68371+Q9H4B7+P0DPH7+P68366+Q13509+Q71U36+P04350+Q3ZCM7+P07437+P68363+Q9BQE3+Q6PEY2+Q13885+Q9BVA1+Q9BUF5); assay: Disruption of microtubule network in human MGC-803 cells assessed as disruption of mitosis at 0.25 to 2.0 nmol/L incubated for 24 hrs by DAPI staining based fluorescence microscopic analysis; format: cell-based; conditions: dose 0.25-2 nmol/L
HGC-27 [9] = assay: Anti-migratory activity against human HGC-27 cells assessed as decrease in cell migration at 1 nmol/L measured after 24 hrs by wound healing assay relative to control; format: functional; set-up: scale not given: the % may be the effect or the level left
HUVEC [10] = assay: Anti-vascular activity in HUVEC cells assessed as reduction in length of tubular network incubated for 5 hrs by Matrigel based inverted microscopic analysis; format: functional, cell-based; conditions: Homo sapiens, dose 0.5-2 nmol/L
HUVEC [11] = assay: Anti-vascular activity in HUVEC cells assessed as reduction in width of tubular network incubated for 5 hrs by Matrigel based inverted microscopic analysis; format: functional, cell-based; conditions: Homo sapiens, dose 0.5-2 nmol/L
MGC-803 [12] = assay: Induction of apoptosis in human MGC-803 cells assessed as downregulation of Bcl-2 expression incubated for 48 hrs by Western blotting analysis; format: functional, cell-based; conditions: dose 0.25-2 nmol/L
[13] = Toxicity in female BALB/c-nu nude mouse xenografted with human MGC-803 cells assessed as body weight loss at 5 mg/kg, po administrated every other day for 11 times and measured after 21 days; format: organism-based; conditions: in vivo, 504 h, time 21 day
HGC-27 [14] = assay: Induction of apoptosis in human HGC-27 cells assessed as increase in dead to live cells ratio at 0.25 to 2.0 nmol/L incubated for 48 hrs by Calcein-AM/PI staining based analysis; format: functional, cell-based; conditions: dose 0.25-2 nmol/L
ECa-109 cell line = assay: Antiproliferative activity against human EC109 cells assessed as inhibition of cell proliferation incubated for 48 hrs by MTT assay; format: functional, cell-based; conditions: ECa-109, 48 h
HGC-27 [15] = assay: Induction of cell cycle arrest in human HGC-27 cells assessed as downregulation of Wee1 level measured after 48 hrs by Western blot analysis; format: functional, cell-based; conditions: dose 0.25-2 nmol/L
MGC-803 [16] = assay: Induction of cell cycle arrest in human MGC-803 cells assessed as accumulation of cells at G2/M phase incubated for 24 hrs by RNase A/propidium iodide staining based flow cytometric analysis; format: functional; conditions: dose 0.25-2 nmol/L
HGC-27 [17] = assay: Antiproliferative activity against human HGC-27 cells assessed as inhibition of cell proliferation incubated for 48 hrs by MTT assay; format: functional, cell-based; conditions: HGC-27, 48 h
MGC-803 [18] = assay: Antiproliferative activity against human MGC-803 cells by MTT assay; format: functional, cell-based; conditions: dose 0.25-2 nmol/L
MGC-803 [19] = assay: Induction of apoptosis in human MGC-803 cells assessed as late apoptotic cells at 0.5 nmol/L incubated for 48 hrs by Annexin V-FITC/propidium iodide staining based flow cytometry analysis (reference value: 2.22 %); format: functional
HGC-27 [20] = assay: Inhibition of colony formation in human HGC-27 cells incubated for 7 days by crystal violet staining based colony formation assay; format: functional, cell-based; conditions: dose 0.1-0.5 nmol/L, time 7.0 day
[21] = Toxicity in female BALB/c-nu nude mouse xenografted with human MGC-803 cells assessed as change in spleen morphology at 5 mg/kg, po administrated every other day for 11 times and measured after 21 days by hematoxylin and eosin staining based analysis; format: organism-based; conditions: in vivo, 504 h, time 21 day
HGC-27 [22] = assay: Induction of apoptosis in human HGC-27 cells assessed as nuclei shrinkage at 0.25 to 2.0 nmol/L incubated for 48 hrs by DAPI staining based analysis; format: functional, cell-based; conditions: dose 0.25-2 nmol/L
HGC-27 [23] = assay: Induction of apoptosis in human HGC-27 cells assessed as appearance of ruptured cells at 0.25 to 2.0 nmol/L incubated for 48 hrs by bright field microscopic analysis; format: functional, cell-based; conditions: dose 0.25-2 nmol/L
MGC-803 [24] = assay: Antiproliferative activity against human MGC-803 cells assessed as inhibition of cell proliferation incubated for 48 hrs by MTT assay; format: functional, cell-based; conditions: MGC-803, 48 h
MGC-803 [25] = assay: Induction of apoptosis in human MGC-803 cells assessed as late apoptotic cells at 2.0 nmol/L incubated for 48 hrs by Annexin V-FITC/propidium iodide staining based flow cytometry analysis (reference value: 2.22 %); format: functional
[26] = biological target: T1, Tubulin beta (Homo sapiens); assay: Competitive binding affinity to beta-tubulin colchicine binding site in human HGC-27 cells assessed as inhibition of EBI-beta-tubulin adduct band formation by measuring reduction in adduct band intensity preincubated for 2 hrs followed by EBI addition and measured after 2 hrs by Western blotting analysis; format: cell-based; conditions: dose 0.1-1 µmol/L, time 4.0 hrs
MGC-803 [27] = assay: Induction of apoptosis in human MGC-803 cells assessed as early apoptotic cells at 0.5 nmol/L incubated for 48 hrs by Annexin V-FITC/propidium iodide staining based flow cytometry analysis (reference value: 0.83 %); format: functional
Tubulin (Homo sapiens) [28] = biological target: T2, Tubulin (Homo sapiens); assay: Disruption of microtubule network in human HGC-27 cells assessed as irregular cellular morphology at 0.25 to 2.0 nmol/L incubated for 24 hrs by DAPI staining based fluorescence microscopic analysis; format: cell-based; conditions: dose 0.25-2 nmol/L
HUVEC [29] = assay: Anti-migratory activity against HUVEC cells assessed as wound healing rate at 2.0 nmol/L measured after 24 hrs by wound healing assay (reference value: 97 %); format: functional, Homo sapiens
HGC-27 [30] = assay: Induction of apoptosis in human HGC-27 cells assessed as increase in cleaved Caspase-9 expression at 0.25 to 2.0 nmol/L incubated for 48 hrs by Western blotting analysis; format: functional, cell-based; conditions: dose 0.25-2 nmol/L
HGC-27 [31] = assay: Induction of apoptosis in human HGC-27 cells assessed as late apoptotic cells at 0.5 nmol/L incubated for 48 hrs by Annexin V-FITC/propidium iodide staining based flow cytometry analysis (reference value: 3.70 %); format: functional

Question: Which results are given for `CN(c1ccc2c(ccn2C)c1)c1nc(N2CCCC2)nc2sccc12`?
Answer: inhibition in vivo at 5 mg/kg (MGC-803 [1]): 45.8%; Activity (HGC-27 [2]): 3.98%; inhibition at 0.0005 µM (MGC-803 [3]): > 90%; Activity (MGC-803 [4]): 3.78%; Activity [5]: Dose-dependent-effect; Activity (MGC-803 [6]): 3.42%; Activity (HGC-27 [7]): Dose-dependent-effect; Activity (Tubulin (Homo sapiens) [8]): Active; Activity (HGC-27 [9]): 17%; Activity (HUVEC [10]): Dose-dependent-effect; Activity (HUVEC [11]): Dose-dependent-effect; Activity (MGC-803 [12]): Dose-dependent-effect; Activity [13]: Non-toxic; Activity (HGC-27 [14]): Active; IC50 (ECa-109 cell line): 2.19 nM; Activity (HGC-27 [15]): Dose-dependent-effect; Activity (MGC-803 [16]): Dose-dependent-effect; IC50 (HGC-27 [17]): 1.82 nM; Activity (MGC-803 [18]): Dose-dependent-effect; Activity (MGC-803 [19]): 2.84%; inhibition (HGC-27 [20]): Dose-dependent-effect; Activity [21]: Non-toxic; Activity (HGC-27 [22]): Active; Activity (HGC-27 [23]): Active; IC50 (MGC-803 [24]): 1.61 nM; Activity (MGC-803 [25]): 8.06%; Activity [26]: Dose-dependent-effect; Activity (MGC-803 [27]): 3.33%; Activity (Tubulin (Homo sapiens) [28]): Active; Activity (HUVEC [29]): 44%; Activity (HGC-27 [30]): Active; Activity (HGC-27 [31]): 3.5%
